The values below come from paper PMC7522027 (Disease Models & Mechanisms, 2020).

One test has as its target T1, caALK1 (Homo sapiens, UniProt P37023, Q201D).
T1 construct: expressed in transfected cells; host or cells: HEK 293T
The experiment in a line: caALK1-induced SMAD1/5 phosphorylation in HEK 293T cells. The note with it: cercosporamide 1-10 µM, LDN193189 200 nM. Format: cell-based. From the text:
(§1) HepG2 or HEK 293T cells were lysed in Laemmli sample buffer. Proteins were separated by sodium dodecyl sulfate polyacrylamide gel electrophoresis (SDS-PAGE) and transferred onto […] polyvinylidene difluoride (PVDF) membrane (IPVH00010, Merck Millipore). Membranes were blocked using 5% non-fat dry milk in Tris-buffered saline with 0.1% Tween 20 (655204, Merck Millipore) and probed with the respective primary and secondary antibodies. The signal was detected using Clarity™ Western ECL Substrate (1705060, Bio-Rad) and ChemiDoc Imaging System (17001402, Bio-Rad). The antibodies used for immunoblotting were raised against the following proteins: phospho-SMAD1/5/8 ([Persson et al., 1998]; 1:1000), SMAD1 (Cell Signaling Technology, #6944; 1:1000), GAPDH (Merck Millipore, #G8795; 1:5000) and hemagglutinin (HA; Roche, #12CA5; 1:1000).
(§2) For experiments with the caALK type I receptor constructs, HEK 293T cells were seeded in 24-well plates at ∼90% confluency and transfected with the DNA expression constructs in the presence of PEI. Thirty hours after transfection, the cells were added to serum-starved medium and treated with compounds for 16 h (overnight). Subsequently, the cells were washed with PBS and lysed in Laemmli sample buffer. […]

The next test has as its target T2, ACV-R1 (ALK2) (Homo sapiens, UniProt Q04771).
T2 construct: purchased ProQinase GmbH (Freiburg, Germany); host or cells: bacteria (so in the source)
T2 sequence (Q04771 21-509): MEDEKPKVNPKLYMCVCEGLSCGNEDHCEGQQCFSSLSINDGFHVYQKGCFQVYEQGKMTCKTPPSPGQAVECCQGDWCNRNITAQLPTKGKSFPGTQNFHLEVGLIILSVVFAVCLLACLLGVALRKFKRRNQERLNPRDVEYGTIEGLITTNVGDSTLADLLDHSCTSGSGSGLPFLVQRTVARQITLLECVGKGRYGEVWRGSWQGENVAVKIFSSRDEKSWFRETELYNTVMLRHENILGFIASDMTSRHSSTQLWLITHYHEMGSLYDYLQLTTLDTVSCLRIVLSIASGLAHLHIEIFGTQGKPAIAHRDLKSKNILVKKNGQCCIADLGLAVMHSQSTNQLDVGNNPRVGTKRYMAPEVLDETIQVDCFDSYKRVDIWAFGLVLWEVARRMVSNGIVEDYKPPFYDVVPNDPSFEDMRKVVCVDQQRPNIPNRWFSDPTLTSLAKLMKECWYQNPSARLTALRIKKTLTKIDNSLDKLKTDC
The test is described as follows: radiometric protein kinase assay, ALK2. The settings on record: [ATP] = 3 μM; Fig. 7B. Format: biochemical.

In test [1] the test system is MEK and anaplastic lymphoma kinase (ALK) versus ALK serine/threonine kinases. The experiment in a line: kinase panel: sensitivity of control kinases relative to ALK serine/threonine kinases. It counts as biochemical, human. The note with it: ratio of IC50 values. Here is the method:
IC50 values were calculated using Prism 5.04 for Windows (GraphPad, San Diego, CA, USA; www.graphpad.com). The mathematical model used was ‘Sigmoidal response (variable slope)’ with parameters ‘top’ fixed at 100% and ‘bottom’ at 0%. The fitting method used was a least-squares fit.

The next test has as its system zebrafish embryos. The test is described as follows: in situ hybridization with krox20/myod probes in treated zebrafish embryos. Format: in vivo, zebrafish (Danio rerio). The note with it: 750 nM from 6 hpf, fixed at 12 hpf. Here is the method: Embryos were treated from approximately 6 hpf until 12 hpf when they were fixed in 4% paraformaldehyde overnight. In situ hybridization was performed using krox20 and myod anti-sense RNA probes as described elsewhere ([Thisse and Thisse, 2008]).

In another test the target is T3, caALK3 (Homo sapiens, UniProt P36894, Q233D).
T3 construct: expressed in transfected cells; host or cells: HEK 293T
The experiment in a line: caALK3-induced SMAD1/5 phosphorylation in HEK 293T cells. It counts as cell-based. The note with it: cercosporamide 1-10 µM, LDN193189 200 nM.
From the text: as §1, §2

A further test deals with T4, MEK (MEK1 wt) (Homo sapiens, UniProt Q02750).
T4 construct: purchased ProQinase GmbH (Freiburg, Germany); host or cells: bacteria (so in the source)
The test is described as follows: radiometric protein kinase assay, MEK. It counts as biochemical. The settings on record: [ATP] = 3 μM; Fig. 7H.

Another test deals with caALK6. The experiment in a line: caALK6-induced SMAD1/5 phosphorylation in HEK 293T cells. The note with it: cercosporamide 1-10 µM, LDN193189 200 nM. It counts as cell-based, human.
From the text: as §1, §2

The target in a further test is T5, caALK2 (Homo sapiens, UniProt Q04771, Q207D).
T5 construct: expressed in transfected cells; host or cells: HEK 293T
T5 sequence (Q04771 21-509 Q207D): T2 sequence (Q04771 21-509) with Q187D
The test is described as follows: caALK2-induced SMAD1/5 phosphorylation in HEK 293T cells. Format: cell-based. The settings on record: cercosporamide 1-10 µM, LDN193189 200 nM.
From the text: as §1, §2

In test [2] the test system is BMP2-induced SMAD1/5 phosphorylation. The test is described as follows: BMP2-induced SMAD1/5 phosphorylation in HepG2 cells (immunoblot). It counts as cell-based, human. The note with it: HepG2, BMP2 50 ng/ml; high concentrations (range 100 nM to 10 µM). Here is the method:
For BMP stimulation, the HepG2 cells (∼50% confluency) were starved on serum-free medium for 6 h. Subsequently, prior to the addition of BMP ligands, the cells were treated with compound for 30 min. Next, the cells were stimulated with BMP2 (50 ng/ml) or BMP6 (50 ng/ml) for 45 min. The cells were then washed with PBS and lysed in Laemmli sample buffer for western blot analysis.
as §1

Numbering of substitutions follows the chain as printed. Several values for one entry are separate records, joined by “and”; a condition that tells them apart may be missing. Equal values may be shown once.

T1 sequence (P37023 22-503 Q201D): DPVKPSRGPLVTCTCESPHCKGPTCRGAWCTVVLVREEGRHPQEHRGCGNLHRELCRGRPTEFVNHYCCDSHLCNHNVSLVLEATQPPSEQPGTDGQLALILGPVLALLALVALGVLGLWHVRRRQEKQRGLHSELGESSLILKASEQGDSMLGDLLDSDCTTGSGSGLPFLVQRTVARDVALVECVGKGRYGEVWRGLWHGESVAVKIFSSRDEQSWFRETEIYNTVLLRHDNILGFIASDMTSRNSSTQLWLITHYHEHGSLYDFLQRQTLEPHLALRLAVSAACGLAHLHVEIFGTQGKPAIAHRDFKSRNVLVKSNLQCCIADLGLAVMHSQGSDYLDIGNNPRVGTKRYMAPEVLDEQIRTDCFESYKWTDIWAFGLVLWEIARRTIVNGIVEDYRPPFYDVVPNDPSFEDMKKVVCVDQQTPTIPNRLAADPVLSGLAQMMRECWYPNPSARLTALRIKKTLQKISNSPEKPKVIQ
T4 sequence (Q02750 whole entry): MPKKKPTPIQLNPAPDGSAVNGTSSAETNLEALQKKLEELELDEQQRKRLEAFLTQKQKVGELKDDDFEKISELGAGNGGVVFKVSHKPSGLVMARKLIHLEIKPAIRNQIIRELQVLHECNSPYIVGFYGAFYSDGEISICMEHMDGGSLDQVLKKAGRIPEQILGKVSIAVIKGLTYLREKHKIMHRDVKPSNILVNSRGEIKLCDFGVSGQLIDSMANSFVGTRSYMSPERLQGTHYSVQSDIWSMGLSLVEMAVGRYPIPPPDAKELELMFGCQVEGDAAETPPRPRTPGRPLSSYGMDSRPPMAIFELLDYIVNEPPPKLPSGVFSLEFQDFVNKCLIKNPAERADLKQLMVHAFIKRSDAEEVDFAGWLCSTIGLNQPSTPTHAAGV
T3 sequence (P36894 24-532 Q233D): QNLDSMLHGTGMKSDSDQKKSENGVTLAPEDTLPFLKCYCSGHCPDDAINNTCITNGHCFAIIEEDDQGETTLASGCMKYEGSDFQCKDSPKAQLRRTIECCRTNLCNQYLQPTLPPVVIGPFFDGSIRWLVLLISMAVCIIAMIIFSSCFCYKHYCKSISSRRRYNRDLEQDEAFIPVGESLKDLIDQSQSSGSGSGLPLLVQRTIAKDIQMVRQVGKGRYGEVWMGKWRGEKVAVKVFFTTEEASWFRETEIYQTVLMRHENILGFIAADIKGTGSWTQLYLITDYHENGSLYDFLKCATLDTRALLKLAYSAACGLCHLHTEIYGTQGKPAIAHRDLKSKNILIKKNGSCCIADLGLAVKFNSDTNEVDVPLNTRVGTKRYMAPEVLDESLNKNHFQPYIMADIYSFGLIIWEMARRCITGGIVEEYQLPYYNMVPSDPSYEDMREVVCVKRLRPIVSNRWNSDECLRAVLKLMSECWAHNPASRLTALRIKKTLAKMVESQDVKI

Turning to `CC(=O)C1=C(O)C=C2Oc3c(C(N)=O)c(O)cc(O)c3[C@]2(C)C1=O` [cercosporamide, Cercosporamide], the “effect on caALK1-induced SMAD1/5 phosphorylation” value at caALK1 is “inhibited SMAD1/5 phosphorylation”. Moreover, the IC50 (usually the concentration needed to halve the response being measured) on ACV-R1 (ALK2) is 0.6 µM; on MEK (MEK1 wt) it was 4.1 µM. Besides, in test [1], the “MEK and tyrosine kinase ALK less sensitive than the ALK serine/threonine kinases” value is 7- to 67 fold. For the same compound, the krox20 expression pattern result in the test on zebrafish embryos is listed as “induced lateral expression of krox20”. For the same compound, the “fraction of embryos showing the pattern” value with zebrafish embryos (one fraction per depicted pattern) was 7/15 and 6/15 and 2/15. In addition, the “effect on caALK3-induced SMAD1/5 phosphorylation” value on caALK3 is listed as “inhibited SMAD1/5 phosphorylation”. Besides, in the test on caALK6, the “effect on caALK6-induced SMAD1/5 phosphorylation” value is given as “inhibited SMAD1/5 phosphorylation”. Further, the “effect on caALK2-induced SMAD1/5 phosphorylation” value on caALK2 is listed as “inhibited SMAD1/5 phosphorylation”. The “effect on BMP2-induced SMAD1/5 phosphorylation” value in test [2] is reported as “capable of blocking SMAD1/5 phosphorylation”.
